The target of series [1] is T1, mouse EP4 receptor (Mus musculus, UniProt P32240).
T1 construct: expressed in transfected cells; host or cells: CHO (EP4-CHO)
As to the kind of experiment: Measurement of EP4 agonist activity (cAMP concentration) in EP4-CHO cells. Conditions: cAMP production, read-out: Agonist activity on various prostanoid receptors: EC50 value, EP4. The series is classed as cell-based. An excerpt:
(§1) (1-1) Measurement of Agonist Activity on Various Mouse Prostanoid Receptors
(§2) Using CHO cells (FP-CHO, EP2-CHO, EP4-CHO and IP-CHO, respectively) in which various mouse prostanoid receptors were forcibly expressed, respectively, agonist activity of test compounds on various prostanoid receptors was studied employing an intracellular calcium concentration regarding FP, and an intracellular cyclic AMP (hereinafter, abbreviated as cAMP) production amount regarding IP, EP2 and EP4 as an index.
(§3) The test compound and a control substance (PGE2, PGF2α, and iroprost) were dissolved with dimethyl sulfoxide (DMSO) to prepare a 10 mmol/L solution. Regarding the prepared 10 mmol/L solution, upon use, the 10 mmol/L solution was thawed, stepwisely-diluted using DMSO, and diluted with a buffer solution for measurement or a buffer solution for measurement 2, which was subjected to an experiment.
(§4) Cells forcibly expressing various mouse prostanoid receptors were standing-cultured at 37° C. in the presence of 5% CO2 using an α-MEM medium (Sigma) (for culturing FP-CHO, EP2-CHO and EP4-CHO) containing inactivated (56° C., 30 minutes) 9.8 vol % dialysed-FBS (Invitrogen) and penicillin-streptomycin-glutamine (GIBCO-BRL), or nucleic acid-containing α-MEM (Sigma) (for culturing IP-CHO) containing inactivated (56° C., 30 minutes) 9.8 vol % dialysed-FBS (Invitrogen) and penicillin-streptomycin glutamine (Invitrogen). Subculturing was performed by the following method.
(§5) The medium was removed, and washed with a phosphate-buffered physiological saline not containing Ca^2+ and Mg^2+ once. A suitable amount of trypsin-EDTA (Invitrogen) was added, this was incubated at 37° C. for about 3 minutes, cells were peeled, and a medium having a volume which is 10-fold a volume of trypsin-EDTA was added to stop an enzymatic reaction. After cells were recovered (120 g) into a centrifuging tube, and centrifuged at room temperature for 3 minutes, the supernatant was removed. Cells were suspended in a suitable amount of a medium, and seeded in a culturing flask. […]
Background: Changes in cAMP serve as a functional read-out for many G protein-coupled receptors.

The target in series [2] is T2, mouse EP2 receptor (Mus musculus, UniProt Q62053).
T2 construct: expressed in transfected cells; host or cells: CHO (EP2-CHO)
The experiment in a line: Measurement of EP2 agonist activity (cAMP concentration) in EP2-CHO cells. The class given is cell-based. The settings on record: cAMP production, read-out: Agonist activity on various prostanoid receptors: EC50 value, EP2.
Text: as §1, §2, §3, §4, §5

Series [3] addresses T3, mouse FP receptor (Mus musculus, UniProt P43117).
T3 construct: expressed in transfected cells; host or cells: CHO (FP-CHO)
As to the kind of experiment: Measurement of FP agonist activity (intracellular calcium concentration) in FP-CHO cells. The series is classed as cell-based. The settings on record: read-out: Agonist activity on various prostanoid receptors: EC50 value, FP.
Text: as §1, §2
(§6) The test compound and a control substance (PGE2, PGF2α, and iroprost) were dissolved with dimethyl sulfoxide (DMSO) to prepare a 10 mmol/L solution. Regarding the prepared 10 mmol/L solution, upon use, the 10 mmol/L solution was thawed, stepwisely-diluted using DMSO, and diluted with a buffer solution for measurement or a buffer solution for measurement 2, which was subjected to an experiment. […]
The 96-well UV plate was set in a fluorescent spectral photometer (FDSS-3000, Hamamatsu Photonics K.K.), and an intracellular calcium concentration was measured. […]
A general note: Calcium flux is commonly read through the fluorescence of an indicator in the cells.

Series [4] addresses T4, mouse IP receptor (Mus musculus, UniProt P43252).
T4 construct: expressed in transfected cells; host or cells: CHO (IP-CHO)
As to the kind of experiment: Measurement of IP agonist activity (cAMP concentration) in IP-CHO cells. The series is classed as cell-based. Conditions: cAMP production, read-out: Agonist activity on various prostanoid receptors: EC50 value, IP.
Text: as §1, §2, §6

Series [5] concerns male rabbit (NewZealandWhite). The experiment in a line: Assessment of ocular stimulating property (Draize score) in rabbit. The class given is in vivo. Conditions: ocular instillation 30 μL, 1000 μg/mL, observed 0 to 8 hours (FIG. 1). The method, then:
(§7) (2-2) Assessment of Ocular Stimulating Property and Aqueous Humor Protein Concentration
To one eye of a male rabbit (NewZealandWhite, 2.0 to 3.0 kg) was ocular-instilled 30 μL of the compound of Example 16 (1) which had been adjusted to 0.1% (w/v) with a base (containing citrate buffer pH 6.5, 0.5% polysorbate 80, 1% propylene glycol, 0.01% benzalkonium chloride), respectively. Thereafter, an aqueous humor in anterior chamber after 0, 1, 2, 4, 6 and 8 hours from ocular instillation was collected, and a protein concentration in the humor was measured. […]
Observation of the ocular general state was performed after 0, 1, 2, 4, 6 and 8 hours from ocular instillation, and visual remark of cornea, iris, and conjunctiva was observed according to determination criteria of the Draize method. A total of points of the resulting assessment points of each item (=A1×B1×5+A2×5+(A3+B3+C3)×2) was assessed as a Draize score. […]
(§8) Regarding any test compound, a dose of 1000 μg/mL was administered and action of each active body was assessed.

Series [6] relates to male rabbit (NewZealandWhite). As to the kind of experiment: Aqueous humor protein concentration in rabbit after ocular instillation. The class given is in vivo. The settings on record: ocular instillation 30 μL, 1000 μg/mL, 0 to 8 hours (FIG. 2). The method, then:
as §7
To one eye of a male rabbit (NewZealandWhite, 2.0 to 3.0 kg) was ocular-instilled 30 μL of the compound of Example 16 (1) which had been adjusted to 0.1% (w/v) with a base (containing citrate buffer pH 6.5, 0.5% polysorbate 80, 1% propylene glycol, 0.01% benzalkonium chloride), respectively. Thereafter, an aqueous humor in anterior chamber after 0, 1, 2, 4, 6 and 8 hours from ocular instillation was collected, and a protein concentration in the humor was measured. As comparative compounds, the aforementioned methyl ester of the compound of Example 12 described in Patent Literature 2 (i.e. compound of Example 10 described in Patent Literature 2) (hereinafter, abbreviated as Comparative Compound C in some cases) and the aforementioned methyl ester of the Comparative Compound B (i.e. optically active body (2S isomer) of the compound of Example 1 (F) described in Patent Literature 1) (hereinafter, abbreviated as Compound D in some cases) were used.
as §8

Series [7] relates to male monkey (crab-eating monkey). As to the kind of experiment: Intraocular pressure lowering action in monkey under consciousness. The class given is in vivo. The settings on record: conscious crab-eating monkey, ocular instillation 30 μL, 10 μg/mL Comparative Compound C, 30 μg/mL Example 16 (1). The method, then: (2-3) Intraocular Pressure Lowering Action in Monkey Under Consciousness
To a left eye of a male monkey (crab-eating monkey) under consciousness was ocular instillation-administered 30 μL of a solution obtained by adjusting a test substance using the same base as that described above and, to a right eye was ocular instillation-administered 30 μL of a solution of only a base as a control, respectively. An intraocular pressure after administration was measured with time from administration initiation to after 24 hours. Upon measurement of an intraocular pressure, a crab-eating monkey was fixed on a monkey chair, and the monkey was anesthetized by ocular instillation-administering an ocular surface anesthetic (Benoxil eye drops 0.4% Santen Pharmaceutical Co., Ltd.). After mounting of a blepharostat (Handaya Co., Ltd.), an intraocular pressure of both eyes was measured (5 to 8 examples per group) using a pneumatic applanation flat tonometer (Model 30 Classic, REICHERT). A difference in an intraocular pressure value between control eyes and eyes to which a test substance had been administered, was calculated as an intraocular pressure lowering rate using the following equation, and sustainability of intraocular eye lowering action was assessed using a maximum intraocular pressure lowering rate during measurement and an intraocular pressure lowering rate after 24 hours. […]

In series [8] the test system is male dog (TOYO Beagle). The experiment in a line: Intraocular pressure lowering action in dog after ocular instillation. The class given is in vivo. The settings on record: ocular instillation 30 μL, maximum among 2, 4, 6, 8, 24 hours, dose 30 μg/mL Example 16 (1), 50 μg/mL latanoprost. The method, then:
(2-1) Intraocular Pressure Lowering Action
To one eye of a male dog (TOYO Beagle) which had been sufficiently acclimated in advance was ocular-instilled 30 μL of the compound of Example 16 (1) which had been adjusted with a base (containing citrate buffer pH 6.5, 0.5% polysorbate 80, 1% propylene glycol, 0.01% benzalkonium chloride) to 0.003% (w/v), respectively. The other eye was not treated. As a positive control compound, latanoprost which is the known compound was used.
Thereafter, an ocular surface anesthetic (Benoxil eye drops 0.4%, Santen Pharmaceutical Co., Ltd.) was subjected to ocular instillation to locally anesthetize eyes, and an intraocular pressure of each test compound before ocular instillation and after 2, 4, 6, 8, and 24 hours from ocular instillation was measured. An intraocular pressure was measured using a pneumatic applanation flat tonometer (Model 30 Classic, REICHERT). An intraocular pressure lowering rate (%) was calculated by the following equation.

Where only a bound is given, the exact number is not on record here.

T1 sequence (P32240 whole entry): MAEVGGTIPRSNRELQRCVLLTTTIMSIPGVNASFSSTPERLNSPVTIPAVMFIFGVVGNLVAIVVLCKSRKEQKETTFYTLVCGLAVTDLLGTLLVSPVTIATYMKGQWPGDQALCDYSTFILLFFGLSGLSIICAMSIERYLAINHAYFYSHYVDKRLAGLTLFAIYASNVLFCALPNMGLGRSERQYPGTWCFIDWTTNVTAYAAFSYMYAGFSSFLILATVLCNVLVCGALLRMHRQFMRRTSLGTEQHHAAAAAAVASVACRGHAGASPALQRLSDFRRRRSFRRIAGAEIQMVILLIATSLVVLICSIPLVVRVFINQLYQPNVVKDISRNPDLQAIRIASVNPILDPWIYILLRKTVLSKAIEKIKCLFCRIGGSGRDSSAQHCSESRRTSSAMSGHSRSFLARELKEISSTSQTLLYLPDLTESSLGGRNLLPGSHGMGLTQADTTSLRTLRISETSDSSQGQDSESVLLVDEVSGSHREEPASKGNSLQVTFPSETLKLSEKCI
T2 sequence (Q62053 whole entry): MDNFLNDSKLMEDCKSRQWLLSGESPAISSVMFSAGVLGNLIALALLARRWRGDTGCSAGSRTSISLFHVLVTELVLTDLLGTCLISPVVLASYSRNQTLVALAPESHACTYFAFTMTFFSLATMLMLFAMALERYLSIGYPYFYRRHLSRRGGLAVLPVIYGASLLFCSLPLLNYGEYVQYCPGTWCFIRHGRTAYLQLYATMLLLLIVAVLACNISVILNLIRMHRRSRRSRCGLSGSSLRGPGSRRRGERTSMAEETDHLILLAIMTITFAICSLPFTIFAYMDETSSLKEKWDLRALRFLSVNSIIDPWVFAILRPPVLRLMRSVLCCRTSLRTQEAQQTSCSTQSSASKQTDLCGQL
T4 sequence (P43252 whole entry): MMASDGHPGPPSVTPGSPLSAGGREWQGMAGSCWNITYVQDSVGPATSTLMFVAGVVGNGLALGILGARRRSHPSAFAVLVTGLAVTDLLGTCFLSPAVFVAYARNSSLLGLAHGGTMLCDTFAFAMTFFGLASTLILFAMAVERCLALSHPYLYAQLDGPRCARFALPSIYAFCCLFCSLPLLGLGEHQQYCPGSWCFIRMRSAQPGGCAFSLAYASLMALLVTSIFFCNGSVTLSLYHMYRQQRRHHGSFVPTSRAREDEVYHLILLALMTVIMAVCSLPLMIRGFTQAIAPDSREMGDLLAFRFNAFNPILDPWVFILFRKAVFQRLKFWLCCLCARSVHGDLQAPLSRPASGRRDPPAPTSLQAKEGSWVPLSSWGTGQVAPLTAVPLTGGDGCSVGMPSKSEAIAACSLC
T3 sequence (P43117 whole entry): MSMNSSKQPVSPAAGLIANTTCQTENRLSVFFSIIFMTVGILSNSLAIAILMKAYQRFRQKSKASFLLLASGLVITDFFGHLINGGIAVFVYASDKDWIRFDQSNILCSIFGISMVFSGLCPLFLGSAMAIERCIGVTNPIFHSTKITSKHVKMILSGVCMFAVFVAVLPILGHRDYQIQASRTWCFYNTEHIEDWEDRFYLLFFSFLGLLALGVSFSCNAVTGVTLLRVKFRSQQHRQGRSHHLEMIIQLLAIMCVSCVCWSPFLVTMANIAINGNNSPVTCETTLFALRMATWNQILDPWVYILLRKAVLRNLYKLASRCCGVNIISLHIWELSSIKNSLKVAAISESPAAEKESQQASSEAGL

Usually EC50 stands for the midpoint of the concentration-response curve. `O=C(O)CCC[C@H]1CC[C@@H]2[C@@H](/C=C/[C@@H](O)COc3ccccc3)[C@H](O)C[C@@H]2O1` [Comparative Compound A]: the results for the EC50 in series [1] and in series [2] were 6.1 µM and greater than 100 µM, respectively.
For the compound `CCCCC[C@H](O)/C=C/[C@@H]1[C@H]2CC[C@H](CCCC(=O)O)S[C@H]2C[C@H]1O` [Comparative Compound B, 4-{(2S,4aR,5R,6R,7aS)-6-hydroxy-5-[(1E,3S)-3-hydroxy-1-octen-1-yl]octahydrocyclopenta[b]thiopyran-2-yl}butanoic acid, reference compound], the EC50 came out at 8.9 nM in series [3], 0.38 µM in series [1], 0.022 µM in series [2] and 0.89 µM in series [4].
Take `O=C(O)CCC[C@H]1CC[C@@H]2[C@@H](/C=C/[C@@H](O)COc3ccccc3)[C@H](O)C[C@@H]2S1` [Example 15, 4-{(2S,4aR,5R,6R,7aS)-6-hydroxy-5-[(1E,3R)-3-hydroxy-4-phenoxy-1-buten-1-yl]octahydrocyclopenta[b]thiopyran-2-yl}butanoic acid]: the EC50 in series [3] was 3.4 nM; in series [1], greater than 100 µM; in series [2], greater than 100 µM; in series [4], 6.1 µM.
For the compound `CC(C)OC(=O)CCC[C@H]1CC[C@@H]2[C@@H](/C=C/[C@@H](O)COc3ccccc3)[C@H](O)C[C@@H]2S1` [Example 16 (1), 2-Propanyl 4-{(2S,4aR,5R,6R,7aS)-6-hydroxy-5-[(1E,3R)-3-hydroxy-4-phenoxy-1-buten-1-yl]octahydrocyclopenta[b]thiopyran-2-yl}butanoate], in series [5], the “Classification of ocular stimulating property from maximum of the Draize score” value is “non-stimulating substance (A Draize score of 0 or more and 5 or less was a non-stimulating substance)”. In addition, the “Action on protein concentration in aqueous humor” value in series [6] is “no action of raising a protein concentration in an aqueous humor”. Also, in series [7] (24 hours), the “Intraocular pressure lowering rate after 24 hours” value turned out to be 23.1 ± 2.7%. Also, the “Maximum intraocular pressure lowering rate” value in series [7] was 25.3 ± 2.4%. In addition, the “Maximum of intraocular pressure lowering rate” value in series [8] was found to be 34.2%.

For the origin of these results see US9150537B2, “Bicyclic compound and use thereof for medical purposes” (ONO PHARMACEUTICAL CO., LTD., priority 2011, dated 2015).
